# Data as given in article PMC3834731 (International journal of antimicrobial agents, 2013).
# Marks after values point to notes of the source that are not given here.
# Columns and labels:
# Brucella suis 1330 = format: cell-based
# [1] = test system: B. suis in J774A.1 murine macrophage-like cells; format: cell-based, Brucella suis
# Brucella melitensis 16M = format: cell-based
# Brucella abortus 2308 = format: cell-based
Substance,Log CFU/100 μL/well (Brucella suis 1330),Log reduction (Brucella suis 1330),Log CFU [1] [Log CFU],Log reduction [1],inhibition of growth of B. suis in culture (in words) (Brucella suis 1330),inhibition of intracellular B. suis (in words) [1],Log CFU/mL (Brucella suis 1330) [Log CFU/mL],effectiveness against B. melitensis 16M (in words) (Brucella melitensis 16M),effectiveness against B. abortus 2308 (in words) (Brucella abortus 2308)
H-KFFKFFKFFK-O-ctcatgtcgg-NH2 [acpP],3.05 ± 0.10 Log CFU/100 μL/well,0.01,3.37 ± 0.18,+0.09,,,,,
H-KFFKFFKFFK-O-gctcatttcgc-NH2 [kdtA],1.56 ± 1.10 Log CFU/100 μL/well,1.50 ^*,,,significantly inhibited the growth,,,,
H-KFFKFFKFFK-O-catttttcgtct-NH2 [asd],3.27 ± 0.09 Log CFU/100 μL/well,,1.84 ± 0.50,1.44 ^*,not in Brucella cultures,showed significant inhibition,,,
H-KFFKFFKFFK-O-catatcgtcgga-NH2 [gyrA],3.92 ± 0.06 Log CFU/100 μL/well,0.23,2.47 ± 0.51,0.81 ^*,not in Brucella cultures,showed significant inhibition,,,
H-KFFKFFKFFK-O-cattacagatt-NH2 [dnaG],2.91 ± 0.02 Log CFU/100 μL/well,0.15,1.78 ± 0.56,1.50 ^*,not in Brucella cultures,showed significant inhibition,,,
H-KFFKFFKFFK-O-catcgtcgctc –NH2 [rpoB],0 ^* Log CFU/100 μL/well,,,,significantly inhibited the growth,,0,,
H-KFFKFFKFFK-O-cattgtgtcgc-NH2 [tsf],1.02 ± 0.92 Log CFU/100 μL/well,2.04 ^*,,,significantly inhibited the growth,,,,
"H-KFFKFFKFFK-O-catactcttcct-NH2 [Anti-lacZ, reference compound]",2.83 ± 0.13 Log CFU/100 μL/well,0.23,3.45 ± 0.31,+0.17,did not inhibit the growth,,,,
H-KFFKFFKFFK-O-ttcatgcctgt-NH2 [polA],0.54 ± 0.09 Log CFU/100 μL/well,,2.27 ± 0.69,1.01 ^*,significantly inhibited the growth,showed significant inhibition,,effective,effective
